For assay [1], the system named is cGMP-PDE. Briefly: cGMP-PDE inhibition assay, enzyme from HT-29 tumor cells. The assay is classed as biochemical, human. On the set-up: PDE Inhibition: key to the marks not given beside the values. To be noted: activity profile.
Assay [2] concerns T1, cGMP-PDE.
T1 construct: other: 10 μM; other: 100 μM; other: enzyme from HT-29 cells; other: 20 μM
The description is as above. On the set-up: PDE Inhibition: key to the marks not given beside the values. Format: biochemical, human.

The next assay has as its system PDE4. Briefly: PDE4 inhibition assay, enzyme from HT-29 tumor cells. Format: biochemical, human. As to conditions: enzyme from HT-29 cells. The method, then:
Cyclic GMP labeled with tritium (^3H-cGMP) is used as the substrate for the PDE enzymes. (Thompson, W. J., Teraski, W. L., Epstein, P. M., Strada, S. J., Advances in Cyclic Nucleotide Research, 10:69-92, 1979, which is incorporated herein by reference).
In brief, a solution of defined substrate ^3H-cGMP specific activity is mixed with the drug to be tested. The mixture is incubated with isolated PDE activity (either a single PDE or a mixture of PDE activities). The degree of phosphodiesterase inhibition is determined by calculating the amount of radioactivity released in drug-treated reactions and comparing those against a control sample (a reaction mixture lacking the tested compound but with the drug solvent).
Reference compounds and test compounds were analyzed for their cGMP-PDE inhibitory activity in accordance with the protocol for the assay described supra. […] Both compounds show selectivity for the cGMP-PDE isoenzyme forms over PDE4 isoforms.

Assay [3] concerns HT-29 cells. Briefly: HT-29 tumor cell growth inhibition, SRB assay. On the set-up: Growth Inhibition: key to the marks not given beside the values. Format: cell-based, human. (In general: The SRB assay estimates cell density from bound dye.)
For assay [4], the system named is HT-29 cells. Briefly: Apoptosis by DNA fragmentation assay in HT-29 cells. Format: cell-based, human. Also on record: Apoptosis: key to the marks not given beside the values.
Assay [5] concerns premalignant lesions in mouse mammary gland organ culture. Briefly: Mammary gland organ culture model. For mammary gland organ culture: key: −: Not active; +: Slightly active; ++: Moderately active; +++: Strongly active; ++++: Highly active. As to conditions: for Mammary Gland Organ Culture: activity profile. Format: cell-based. As to the method:
For example, female BALB/c mice can be treated with a combination of estradiol and progesterone daily, in order to prime the glands to be responsive to hormones in vitro. The animals are sacrificed and thoracic mammary glands are excised aseptically and incubated for ten days in growth media supplemented with insulin, prolactin, hydrocortisone, and aldosterone. DMBA (7,12-dimethylbenz(a)anthracene) is added to medium to induce the formation of premalignant lesions. Fully developed glands are then deprived of prolactin, hydrocortisone, and aldosterone, resulting in the regression of the glands but not the premalignant lesions.
The test compound is dissolved in DMSO and added to the culture media for the duration of the culture period. At the end of the culture period, the glands are fixed in 10% formalin, stained with alum carmine, and mounted on glass slides. The extent of the area occupied by the mammary lesions can be quantitated by projecting an image of the gland onto a digitation pad. The area covered by the gland is traced on the pad and considered as 100% of the area. The space covered by each of the unregressed structures is also outlined on the digitization pad and quantitated by the computer.
The incidence of forming mammary lesions is the ratio of the glands with mammary lesions to […]. The incidence of mammary lesions in test compound treated glands is compared with that of the untreated glands.
Mammary gland organ culture experiments were performed as previously described (Mehta and Moon, Cancer Research, 46: 5832-5835, 1986). […] The data support the hypothesis that cyclooxygenase inhibition is not necessary for the anti-neoplastic properties of desired compounds.

For a further assay, the system named is COX. Briefly: COX inhibition. Format: biochemical.
For another assay, the target named is T2, PDE peak A (PDE5) (Homo sapiens, UniProt O76074).
T2 construct: SW-480 cells are collected and homogenized; endogenous in cells; host or cells: SW-480 human colon adenocarcinoma cells; supernatant of homogenate fractionated on DEAE-Trisacryl M
Briefly: cGMP hydrolysis by PDE peak A isolated from SW-480 cells. The assay is classed as biochemical.

The subject of assay [6] is HT-29 cells. In words: cGMP levels in cultured HT-29 cells by radioimmunoassay. As to conditions: HT-29 cells treated 30 minutes. Format: cell-based, human.
Assay [7] has as its system HT-29 cells. In words: HT-29 growth inhibition by counting viable cells after trypan blue staining. The assay is classed as cell-based, human. As to conditions: 120 μM, time course. The method, then: Growth inhibition (FIG. 9A, top) was measured by counting viable cells after trypan blue staining. Apoptosis (FIG. 9B, bottom) was measured by morphological determination following staining with acridine orange and ethidium bromide as described previously (Duke and Cohen, In: Current Protocols in Immunology, 3.17.1-3.17.16, New York, John Wiley and Sons, 1992). […] All data were collected from the same experiment.

For another assay, the system named is MCF7/S, Breast. In words: Growth inhibition of various cell lines (Table 5). The assay is classed as cell-based. To be noted: Homo sapiens, MCF7S. The method, then:
To show the effectiveness of cGMP-specific PDE inhibition on various forms of neoplasia, compounds were tested on numerous cell lines. […] The IC50 values were determined by the SRB assay. […] Therefore, compounds selected for cGMP-specific PDE inhibition in combination with a pyrimidine analog should be useful for treating neoplasia, in particular breast, colorectal and pancreatic cancers.

Assay [8] relates to HT-29 cells. Briefly: Apoptosis and necrosis by morphology (acridine orange/ethidium bromide) in HT-29 cells. As to conditions: 120 μM, time course. Format: cell-based, human. From the text:
Following treatment with a test compound, cultures can be assayed for apoptosis and necrosis by fluorescent microscopy following labeling with acridine orange and ethidium bromide. The method for measuring apoptotic cell number has previously been described by Duke & Cohen, “Morphological And Biochemical Assays Of Apoptosis,” Current Protocols In Immunology, Coligan et al., eds., 3.17.1-3.17.16 (1992, which is incorporated herein by reference).
For example, floating and attached cells can be collected, and aliquots of cells can be centrifuged. The cell pellet can then be resuspended in media and a dye mixture containing acridine orange and ethidium bromide. The mixture can then be examined microscopically for morphological features of apoptosis.
Reference compounds and test compounds were analyzed for their cGMP-specific PDE inhibitory activity in accordance with the protocols for the assay, supra. […] Apoptotic and necrotic cell death was determined as previously described (Duke and Cohen, In: Current Protocols in Immunology, 3.17.1-3.17.16, New York, John Wiley and Sons, 1992). […] All data were collected from the same experiment.
The apoptosis inducing activity for a series of phosphodiesterase inhibitors was determined. HT-29 cell were treated for 6 days with various inhibitors of phosphodiesterase. Apoptosis and necrosis were determined morphologically after acridine orange and ethidium bromide labeling in accordance with the assay described, supra.

The text below walks through data of patent US20020022586A1, “Method for treating a patient with neoplasia by treatment with a pyrimidine analog” (priority 1998, published 2002).

A word on the IC50: it is the concentration that gives 50% inhibition. What is called inhibition is the percentage by which the read-out fell short of the control. One may read the EC50 as the midpoint of the concentration-response curve. On to `COc1cc(/C=C2/C(C)=C(CC(=O)O)c3cc(F)ccc32)cc(OC)c1OC` [Compound B, (Z)-5-Fluoro-2-methyl-1-(3,4,5-trimethoxybenzylidene)-3-acetic acid], for which the “PDE Inhibition” value in the assay with cGMP-PDE [1] was “+++”. Besides, in the assay on cGMP-PDE [2] (100 μM), the “cGMP PDE % Inhibition at 100 μM” value is below 25%. Besides, the IC50 with cGMP-PDE [2] (enzyme from HT-29 cells) worked out at 18 µM; in the assay with PDE4 it was 58 µM. The inhibition at 100 µM with HT-29 cells [3] (Homo sapiens, HT-29, 100 μM single dose, read-out: Growth inhibitory activity, % Inhibition at 100 μM) was 77%. The “Growth Inhibition” value in the assay with HT-29 cells [3] (activity profile) is listed as “+++”. Besides, the fold induction at 100 µM with HT-29 cells [4] (Homo sapiens, HT-29, 100 μM, read-out: Apoptosis inducing activity, Fold induction at 100 μM) was above 2. For the same compound, the EC50 with HT-29 cells [4] (Homo sapiens, HT-29, 48 hours, DNA fragmentation, read-out: EC50 for apoptosis induction) was around 175 µM. Besides, the Apoptosis entry with HT-29 cells [4] (activity profile) is “+++”. Also, the “Mammary Gland Organ Culture” value in [5] is “++”. Moreover, the “COX Inhibition” value in the assay on COX (100 μM) is given as “did not inhibit COX”; with COX (activity profile) it was “−”.
As for `CSc1ccc(/C=C2/C(C)=C(CC(=O)O)c3cc(F)ccc32)cc1` [Sulindac sulfide], the 50% inhibitory concentration (IC50) was 50 µM against PDE peak A (PDE5) and 30 µM in the assay with MCF7/S, Breast. In the assay with HT-29 cells [6], the “increase of cGMP levels” value is listed as “greater than 50%”. In addition, the “growth inhibition, viable cell count” value in the assay on HT-29 cells [7] is on record as “capable of inhibiting tumor cell growth”. In addition, the “apoptosis by morphology” value in the assay with HT-29 cells [8] was “increase in apoptosis”. Moreover, the “Mammary Gland Organ Culture” value in assay [5] was “−”. Further, the “inhibition of premalignant lesions” value in assay [5] (mammary gland organ culture) is “inactive”. The “COX Inhibition” value in the assay on COX (activity profile) is recorded as “++++”.
